# Test: recombinant UMI read abundance after kanamycin selection (control-corrected) (log10(CPM+1)); higher = more efficient recombination; extreme values may be limits of the assay; sequences stand for … in AGTGCAGAGAAAATCGGCCAGTTTTCTCTGCCTGCAGTCCGCATGCCGTGGGACCCCTTGGGTTCTAACCTGTTGCCTAGATTTATGCAGCGGACTGCCTTTCTCCCAAAGTGATAAACCGG…AGGTTGGTTTCACT; site = the 11-nt donor
# How it was run: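 Sequencing read counts were converted to CPM, averaged over two replicates and scaled by control-derived factors. Results are given as log10(CPM+1). The reads covered the donor–target junction of recombinant UMIs from a pooled Escherichia coli screen of donor and donor-binding-loop pairs for the IS621 bridge recombinase.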
# 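Further: IS621 bridge recombinase in Escherichia coli cells against a fixed T5 target plasmid.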
row,Sequence,recombinant UMI read abundance (log10)
1,AATATGTCATGGACCGGTTTTCCCGGTAATCCGTATTTGAC (site AATATGTCTGT),0.953
2,TGTGCTGCATGGACCGGTTTTCCCGGTAATCCGTATTTGAA (site TGTGCTGCTTT),0.011
3,GCTAGGCCATGGACCGGTTTTCCCGGTAATCCGTATTTGAG (site GCTAGGCCTCT),0.0384
4,CTCTGCACATGGACCGGTTTTCCCGGTAATCCGTATTTGCT (site CTCTCCACTAG),0.00325
5,GTTTGAGCATGGACCGGTTTTCCCGGTAATCCGTATTTGCA (site GTTGGAGCTTG),1.55
6,AATGTAACATGGACCGGTTTTCCCGGTAATCCGTATTTGCT (site CATGTAACTAG),2.37
7,TTCTTAGCATGGACCGGTTTTCCCGGTAATCCGTATTTGTT (site TTCTTAGCTAA),0.0119
8,TAGATAGCATGGACCGGTTTTCCCGGTAATCCGTATTTGAA (site TAGTTAGCTTT),0.173
9,ACAGTATCATGGACCGGTTTTCCCGGTAATCCGTATTTGCA (site AAAGTATCTTG),2.1
10,TTGGAGGCATGGACCGGTTTTCCCGGTAATCCGTATTTGTG (site GTGGAGGCTCA),0.0131
11,AGCTCGGCATGGACCGGTTTTCCCGGTAATCCGTATTTGGG (site AGCTCGGCTCC),0
12,TCGTTAGCATGGACCGGTTTTCCCGGTAATCCGTATTTGTG (site CCGTTAGCTCA),0
13,TGCCTAGCATGGACCGGTTTTCCCGGTAATCCGTATTTGTT (site GGCCTAGCTAA),0.0245
14,CAAGTCACATGGACCGGTTTTCCCGGTAATCCGTATTTGGG (site CAAGTCACTCC),0.013
15,CCCGACACATGGACCGGTTTTCCCGGTAATCCGTATTTGTA (site CCCCACACTTA),0.00237
16,CAACGCTCATGGACCGGTTTTCCCGGTAATCCGTATTTGAA (site CAATGCTCTTT),0.0343
17,TATCTAGCATGGACCGGTTTTCCCGGTAATCCGTATTTGAA (site TAGCTAGCTTT),0.00935
18,TAGCCGTCATGGACCGGTTTTCCCGGTAATCCGTATTTGGT (site TAGCCATCTAC),0.764
19,GTAGACGCATGGACCGGTTTTCCCGGTAATCCGTATTTGCG (site GTAGGCGCTCG),1.39
20,GACAGACCATGGACCGGTTTTCCCGGTAATCCGTATTTGGT (site GACAAACCTAC),0
21,TCGAATACATGGACCGGTTTTCCCGGTAATCCGTATTTGCA (site TAGAATACTTG),0.211
22,ATCCATACATGGACCGGTTTTCCCGGTAATCCGTATTTGAC (site ATCCATACTGT),1.77
23,ACAGTATCATGGACCGGTTTTCCCGGTAATCCGTATTTGCA (site ACCGTATCTAG),0.0104
24,GATTGGACATGGACCGGTTTTCCCGGTAATCCGTATTTGAC (site GAGTGGACTGT),0
25,TATCTAGCATGGACCGGTTTTCCCGGTAATCCGTATTTGAA (site TACCTAGCTTT),0.131

row,Sequence,recombinant UMI read abundance (log10)
1,CGGAAGTCATGGACCGGTTTTCCCGGTAATCCGTATTTGCC (site CGGAAGTCTGG),2.88
2,CCTGATACATGGACCGGTTTTCCCGGTAATCCGTATTTGGC (site CCTAATACTGC),0
3,ATGCACGCATGGACCGGTTTTCCCGGTAATCCGTATTTGGG (site AGGCACGCTCC),0.0274
4,GGGAATACATGGACCGGTTTTCCCGGTAATCCGTATTTGTT (site CGGAATCCTAA),0
5,AGGTTCCCATGGACCGGTTTTCCCGGTAATCCGTATTTGTG (site CGGTTCCCTCA),0.0101
6,AATTACGCATGGACCGGTTTTCCCGGTAATCCGTATTTGGA (site AATTACGCTTC),0.807
7,CCTAATACATGGACCGGTTTTCCCGGTAATCCGTATTTGAC (site CCTAATACTGG),0
8,GGGGAACCATGGACCGGTTTTCCCGGTAATCCGTATTTGCA (site GGGGAACCTTG),0
9,TTTACACCATGGACCGGTTTTCCCGGTAATCCGTATTTGAC (site TATACACCTGT),0
10,CCCATATCATGGACCGGTTTTCCCGGTAATCCGTATTTGTA (site CCCATATCTTA),0.903
11,GGACCACCATGGACCGGTTTTCCCGGTAATCCGTATTTGCG (site GGACCACCTCG),0.0308
12,TGTTCACCATGGACCGGTTTTCCCGGTAATCCGTATTTGAC (site TGTGCACCTGT),0
13,GTACTCGCATGGACCGGTTTTCCCGGTAATCCGTATTTGCG (site GTAGTCGCTCG),0.00832
14,AAAGTAGCATGGACCGGTTTTCCCGGTAATCCGTATTTGCT (site AAAGTAGCTAG),1.94
15,CCTCGAGCATGGACCGGTTTTCCCGGTAATCCGTATTTGTG (site CCTCGAGCTCA),0.234
16,AATGTGTCATGGACCGGTTTTCCCGGTAATCCGTATTTGAC (site AATGTGCCTGT),0
17,TCGTTAGCATGGACCGGTTTTCCCGGTAATCCGTATTTGTG (site ACGTTAGCTCA),0.00928
18,TTTACGGCATGGACCGGTTTTCCCGGTAATCCGTATTTGCT (site TTTCCGGCTAG),0.00939
19,AGGTTCCCATGGACCGGTTTTCCCGGTAATCCGTATTTGAG (site AGGTTCCCTCA),0
20,GCTTGCCCATGGACCGGTTTTCCCGGTAATCCGTATTTGAT (site GCTTGCCCTAC),0.00771
21,CGTTTGTCATGGACCGGTTTTCCCGGTAATCCGTATTTGCT (site CGTTTGCCTAG),0
22,TGGAATCCATGGACCGGTTTTCCCGGTAATCCGTATTTGGT (site CGGAATCCTAA),0
23,TTAGTATCATGGACCGGTTTTCCCGGTAATCCGTATTTGAC (site TTAGTATCTGT),2.84
24,GATTATCCATGGACCGGTTTTCCCGGTAATCCGTATTTGCT (site GATTATGCTAG),0
25,ATCCAATCATGGACCGGTTTTCCCGGTAATCCGTATTTGAG (site ATCCAATCTCT),1.04

row,Sequence,recombinant UMI read abundance (log10)
1,TTTACGGCATGGACCGGTTTTCCCGGTAATCCGTATTTGCT (site TTTACGGCTAG),0.234
2,CAAGTCACATGGACCGGTTTTCCCGGTAATCCGTATTTGGG (site CCAGTCACTCC),0.0443
3,CGGCTGCCATGGACCGGTTTTCCCGGTAATCCGTATTTGCA (site CGGCTGCCTTG),1.18
4,AGATCATCATGGACCGGTTTTCCCGGTAATCCGTATTTGCT (site AGATCATCTAG),1.56
5,ACAGTTTCATGGACCGGTTTTCCCGGTAATCCGTATTTGCG (site ACAGTTTCTCG),2.64
6,TCCGATTCATGGACCGGTTTTCCCGGTAATCCGTATTTGCC (site TCCGATTCTGG),0
7,CTGCATGCATGGACCGGTTTTCCCGGTAATCCGTATTTGGT (site TTGCATGCTAC),0.0633
8,GATTCGACATGGACCGGTTTTCCCGGTAATCCGTATTTGAC (site GATTGGACTGT),0
9,AGGTTCCCATGGACCGGTTTTCCCGGTAATCCGTATTTGTG (site AGGTTCCCTCG),0.328
10,TGAGAGACATGGACCGGTTTTCCCGGTAATCCGTATTTGCG (site TCAGAGACTCG),0.426
11,TAGCCTTCATGGACCGGTTTTCCCGGTAATCCGTATTTGGA (site TAGCCTTCTCC),0.02
12,ATTTAGACATGGACCGGTTTTCCCGGTAATCCGTATTTGGT (site ATTGAGACTAC),0.0177
13,CTACTCACATGGACCGGTTTTCCCGGTAATCCGTATTTGGA (site CTACTCACTTC),2.16
14,GGGAATACATGGACCGGTTTTCCCGGTAATCCGTATTTGCA (site AGGAAGACTTG),0
15,GTGGGGGCATGGACCGGTTTTCCCGGTAATCCGTATTTGTG (site GTGGAGGCTCA),1.07
16,CCGTTTACATGGACCGGTTTTCCCGGTAATCCGTATTTGCT (site CCGTTTACTGG),0
17,CCCTAGCCATGGACCGGTTTTCCCGGTAATCCGTATTTGCC (site CCCTCGCCTGG),0
18,GAAGCTTCATGGACCGGTTTTCCCGGTAATCCGTATTTGTT (site GAAGGTTCTAA),0
19,GTCAGAACATGGACCGGTTTTCCCGGTAATCCGTATTTGGC (site GTAAGAACTGC),0.371
20,AGGTTCCCATGGACCGGTTTTCCCGGTAATCCGTATTTGTC (site AGGTTCCCTTA),0
21,GTTCGAGCATGGACCGGTTTTCCCGGTAATCCGTATTTGCA (site GTCCGAGCTTG),1.29
22,GATTACCCATGGACCGGTTTTCCCGGTAATCCGTATTTGCT (site GATTACCCTAG),0
23,GTATTATCATGGACCGGTTTTCCCGGTAATCCGTATTTGAC (site GTATTATCTGT),2.66
24,ATTTAGACATGGACCGGTTTTCCCGGTAATCCGTATTTGGT (site ATTAAGACTAC),0.513
25,GGTACGACATGGACCGGTTTTCCCGGTAATCCGTATTTGTT (site GGTACGGCTAA),0.0185
